“And” between values parts separate entries of the source, which are not always exact repeats. Identical values can stand only once.
Experiments:
[1] = system: β-catenin and MYC in HCT116 cells; assay: β-Catenin and c-Myc levels in HCT116 cells (Western blot); format: cell-based, human; details: LiCl 50 mM, 24 h
Method: (§1) Western blot was performed as previously described.[79] […] Cell lysates were subjected to SDS-polyacrylamide gel electrophoresis and transferred to a nitrocellulose membrane. The membrane was blocked, washed, and incubated with primary antibodies at 37 °C overnight [anti-β-catenin (D10A8) XP mAb #8480 (Cell Signaling), anti-cMyc #9402S (Cell Signaling), anticleaved caspase 3 (Asp175) #9661 (Cell Signaling), and anti-PARP #9542S (Cell Signaling)]. After the membrane was washed, it was incubated with secondary antibodies at 37 °C for 30 min. The membrane was washed again with Tris-buffered saline/Tween-20, and the samples were exposed and imaged using the WesternBright ECL solution (#K-12045-D50 Advansta).

SW620 cells = assay: Inhibition of growth of SW620 cells (XTT); details: read-out: IC50 SW620; human colorectal carcinoma cells; combinations: each compound at its IC50 concentration
Method: (§7) In drug combination studies, each compound was used at the corresponding IC50 concentration.
(§8) Cells were grown in Dulbecco’s modified Eagle’s medium (D-MEM) supplemented with 10% fetal bovine serum (FBS) at 37 °C with 5% CO2. In all experiments, 300,000 cells were plated in 9 cm^2 dishes and exposed to test compound dissolved in DMSO (0.1% final concentration) at the indicated concentrations. […] Cells were kept at low passage, returning to the original frozen stocks every 3–4 months.

MCF-7 cells = assay: Inhibition of growth of MCF-7 cells; format: cell-based, human; details: human nonmetastatic breast cancer epithelial cells
Method: (§2) ; 11 and 15, NCI/ADR-RES and OVCAR-8 cells) to 4.8 (19, OVCAR-8 cells). […] . […] Cells were seeded in 96-well plates.

[2] = system: Wnt target genes Fgf20 and Sall4; assay: Fgf20 and Sall4 mRNA levels in HCT116 cells (qPCR); format: cell-based, human
Method: Total mRNA was isolated from cells with TriReagent (#R2050–1–200 Zymo Research), and complementary DNA (cDNA) was synthesized by the Sensifast cDNA synthesis kit (#BIO-65054 Bioline). Quantitative PCR was performed with SensiFast Sybr Lo-Rox Mix (#BIO-94020 Bioline), using an Applied Biosystems ViiA 7 Real-Time PCR System instrument (doi: 10.1038/s41389-019-0175-6) and the following amplification primers: • β-actin forward: […]; • β-actin reverse: […]; • Fgf20 forward: […]; • Fgf20 reverse: […]; • Sall4 forward: […]; • Sall4 reverse: […].

MDCK cells = assay: Viability of MDCK cells with DOX alone or coincubated with 15 (WST-1); format: cell-based, canine; details: MDCK cells, 15 at 1, 10, 100 nM coincubated with 5 μM DOX, 72 h
Method: (§3) Cells were seeded in 96-well plates.

BT-549 cells = assay: Inhibition of BT-549 TNBC cell growth (hypoxia, cell counting); details: 72 h, 1% O2
Method: (§9) Cells were grown in Dulbecco’s modified Eagle’s medium (D-MEM) supplemented with 10% fetal bovine serum (FBS) at 37 °C with 5% CO2. In all experiments, 300,000 cells were plated in 9 cm^2 dishes and exposed to test compound dissolved in DMSO (0.1% final concentration) at the indicated concentrations. […] Cells were kept at low passage, returning to the original frozen stocks every 3–4 months. Hypoxic culture conditions were realized in the presence of 1% O2 and 5% CO2. […] After 72 h of incubation at 37 °C with 1% O2 and 5% CO2, cells were trypsinized, and cell counting was performed with the MACSQuant analyzer (Miltenyi Biotec).[76]

[3] = system: human primary T lymphocytes; assay: Toxicity on human primary T lymphocytes (annexin V/propidium iodide flow cytometry); details: 30 μM, 72 h, healthy/normal T cells
Method: After 72 h, the frequency of late apoptotic cells was assayed by staining with annexin V and propidium iodide.
Potential toxicity on healthy cells was evaluated by treating human primary T lymphocytes from two healthy donors with 30 μM 15 or with a control vehicle (DMSO). Healthy donors’ peripheral blood mononuclear cells (PBMCs) were isolated by Lymphoprep (Nycomed) gradient centrifugation. T lymphocytes were negatively selected from PBMCs using magnetic Dynabeads Untouched Human T Cells Kit (Thermo Fisher Scientific) following the manufacturer’s instructions. Apoptotic cell death was evaluated using APC Annexin-V Apoptosis Detection Kit with PI (Thermo Fisher Scientific). […] Cells were then stained using annexin-V/APC and propidium iodide according to the manufacturer’s instruction. Cell populations were acquired using a FACS Canto II flow cytometer (BD Biosciences). Flow cytometric analysis was performed using Flow Jo Flow Cytometric Analysis Software.

MDCK/P-gp cells [4] = assay: Intracellular accumulation of DOX in MDCK/P-gp cells; format: cell-based, canine; details: 5 μM DOX 3 h, 15 at 1, 10, 100 nM
Method: (§4) In this model, also at the highest concentration (100 nM), the compound was not able to fully restore the accumulation of the drug to the intracellular level of MDCK cells, which were devoid of P-gp.
(§5) Figure S5. Dose-dependent viability of HT29 and HT29/DX (A), MDCK and MDCK/P-gp (B) cells, incubated with increasing concentrations (0-10 µM) of 15 for 72 h, measured with a spectrophotometric assay. Data are means ± SD (n = 3). **p<0.01, ***p<0.001: versus untreated cells (“0”). […]
(§6) drug retention was measured spectrofluorimetrically. Data are means ± SD (n=3)., ***p<0.001: versus HT29 or […]

hCA IX = target: T1, hCA IX (Homo sapiens, UniProt Q16790); assay: Stopped flow CO2 hydrase assay, hCA IX; format: biochemical; details: stopped flow technique, mean from three assays
T1 construct: made in house

[5] = system: HT29, HT29/DX, MDCK and MDCK/P-gp cells; assay: Cytotoxicity of 15 alone (WST-1 viability); details: 1–100 nM 15 alone, 72 h, four cell lines
Method: Cell lines were obtained from the American Tissue Culture Collection (ATCC), unless specified otherwise. Cells were grown in Dulbecco’s modified Eagle’s medium (D-MEM) supplemented with 10% fetal bovine serum (FBS) at 37 °C with 5% CO2. In all experiments, 300,000 cells were plated in 9 cm^2 dishes and exposed to test compound dissolved in DMSO (0.1% final concentration) at the indicated concentrations. […] Cells were kept at low passage, returning to the original frozen stocks every 3–4 months. […] Human chemosensitive HT29 colon cancer cells were purchased from ATCC (Manassas, VA). […] MDCK and MDCK/P-gp (a gift of Prof. P. Borst, NKI-AVL Institute, Amsterdam, The Netherlands) were grown in DMEM high glucose supplemented with 10% FBS, 1% penicillin, 1% v/v penicillin–streptomycin, and 1% v/v glutamine. […] Cells were seeded in 96-well plates. […] Cell viability was evaluated using the WST-1 assay (Sigma-Merck), as per the manufacturer’s instructions, using a Packard EL340 microplate reader (Bio-Tek Instruments, Winooski, VT). The absorbance units of the untreated cells were considered 100%; the absorbance units of the other experimental conditions were expressed as a percentage versus the absorbance units of the untreated cells.

HT29 cells = assay: Viability of HT29 cells with DOX alone or coincubated with 15 (WST-1); format: cell-based, human; details: 15 at 1, 10, 100 nM coincubated with 5 μM DOX, 72 h
Method: as §3

HCT116 cells = assay: Inhibition of growth of HCT116 cells (MTT); details: read-out: IC50 HCT116; human colorectal carcinoma cells; combinations: each compound at its IC50 concentration
Method: as §7, §8

MDA-MB 231 cells = assay: Inhibition of MDA-MB 231 TNBC cell growth (hypoxia, cell counting); details: 72 h, 1% O2
Method: as §9

[6] = system: Wnt/β-catenin signaling pathway; assay: Wnt reporter assay (TOPFlash/FOPFlash luciferase) in HEK293T cells; details: HEK 293T cells, LiCl 50 mM
Method: HEK293T cells were seeded at 2 × 10^4 cells/cm^2 in triplicate in a 24-well plate.

tubulin = assay: Tubulin assembly (polymerization) assay; format: biochemical; details: at 20 μM
Method: The reaction mixtures contained 0.8 M monosodium glutamate (pH 6.6 with HCl in a 2 M stock solution), 10 μM tubulin, 4% (v/v) DMSO, and varying concentrations of compound. […] The extent of the reaction was measured.

HT29/DX cells [7] = assay: Viability of HT29/DX cells with DOX alone or coincubated with 15 (WST-1); format: cell-based, human; details: 15 at 1, 10, 100 nM coincubated with 5 μM DOX, 72 h
Method: as §3

NCI/ADR-RES cells = assay: Inhibition of growth of NCI/ADR-RES DOX-resistant cells; format: cell-based, human; details: DOX-resistant cell line derived from OVCAR-8, 96 h
Method: as §2

MDCK/P-gp cells [8] = assay: Viability of MDCK/P-gp cells with DOX alone or coincubated with 15 (WST-1); format: cell-based, canine; details: 15 at 1, 10, 100 nM coincubated with 5 μM DOX, 72 h
Method: as §3

HT29/DX cells [9] = assay: Intracellular accumulation of DOX in HT29/DX cells; format: cell-based, human; details: 5 μM DOX 3 h, 15 at 1, 10, 100 nM
Method: as §4, §5, §6

P-gp [10] = target: T2, P-gp (Homo sapiens, UniProt P08183); assay: P-gp ATPase activity, protein immunopurified from HT29/DX cells; details: for Pgp activity (rate of ATP hydrolysis) HT29/DX: 3 h, single replicates of I-III exp
T2 sequence (P08183 whole entry): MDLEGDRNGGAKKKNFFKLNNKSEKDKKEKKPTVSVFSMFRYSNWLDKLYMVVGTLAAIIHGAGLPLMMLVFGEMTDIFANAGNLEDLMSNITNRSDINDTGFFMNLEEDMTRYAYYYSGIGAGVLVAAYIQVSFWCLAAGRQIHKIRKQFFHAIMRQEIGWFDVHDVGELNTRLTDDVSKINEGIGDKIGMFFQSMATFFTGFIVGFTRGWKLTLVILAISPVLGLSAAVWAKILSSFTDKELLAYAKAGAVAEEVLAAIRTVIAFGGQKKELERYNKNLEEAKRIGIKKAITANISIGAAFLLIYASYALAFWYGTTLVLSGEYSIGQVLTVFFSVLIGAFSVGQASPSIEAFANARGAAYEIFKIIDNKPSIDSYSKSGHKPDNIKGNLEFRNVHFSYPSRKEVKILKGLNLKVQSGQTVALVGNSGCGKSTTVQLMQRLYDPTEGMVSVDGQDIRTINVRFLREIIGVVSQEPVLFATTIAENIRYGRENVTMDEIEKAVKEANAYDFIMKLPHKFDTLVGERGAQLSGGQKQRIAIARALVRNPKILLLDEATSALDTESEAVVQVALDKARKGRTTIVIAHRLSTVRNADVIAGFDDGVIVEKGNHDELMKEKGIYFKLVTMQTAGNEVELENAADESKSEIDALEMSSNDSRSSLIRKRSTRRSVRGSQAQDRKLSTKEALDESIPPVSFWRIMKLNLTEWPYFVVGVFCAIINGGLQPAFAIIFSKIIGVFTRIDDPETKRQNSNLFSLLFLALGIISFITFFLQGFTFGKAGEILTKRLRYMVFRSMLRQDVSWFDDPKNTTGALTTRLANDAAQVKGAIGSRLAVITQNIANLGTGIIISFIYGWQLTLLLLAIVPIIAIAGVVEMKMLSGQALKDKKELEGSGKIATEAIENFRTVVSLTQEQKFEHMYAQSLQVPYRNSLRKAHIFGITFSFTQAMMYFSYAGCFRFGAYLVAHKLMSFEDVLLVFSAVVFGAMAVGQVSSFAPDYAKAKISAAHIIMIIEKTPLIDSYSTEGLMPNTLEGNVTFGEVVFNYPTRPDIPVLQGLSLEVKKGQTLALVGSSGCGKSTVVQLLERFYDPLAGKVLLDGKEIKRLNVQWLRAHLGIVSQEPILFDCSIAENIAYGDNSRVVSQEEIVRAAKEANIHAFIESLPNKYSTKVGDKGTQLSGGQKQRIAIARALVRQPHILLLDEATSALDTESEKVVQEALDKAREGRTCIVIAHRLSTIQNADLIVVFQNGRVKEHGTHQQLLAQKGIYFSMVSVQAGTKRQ
Method: (§10) 100 μg of each immunopurified protein was incubated for 30 min at 37 °C with 50 μL of the reaction mixture (25 mM Tris/HCl, 3 mM ATP, 50 mM KCl, 2.5 mM MgSO4, 3 mM dithiothreitol, 0.5 mM EGTA, 2 mM ouabain, 3 mM NaN3; pH 7.0). […] After 30 min incubation at room temperature, the absorbance of the phosphate hydrolyzed from ATP was measured at 620 nm, using a Packard EL340 microplate reader. The absorbance was converted into nmoles hydrolyzed phosphate (Pi)/min/mg protein, according to the titration curve previously prepared.

P-gp [11] = target: T2, P-gp; assay: P-gp ATPase activity, protein immunopurified from MDCK/P-gp cells; details: for Pgp activity (rate of ATP hydrolysis) MDCK-Pgp: 3 h, single replicates of I-III exp
Method: as §10

SW480 cells = assay: Inhibition of growth of SW480 cells (XTT); details: read-out: IC50 SW480; human colorectal carcinoma cells; combinations: each compound at its IC50 concentration
Method: as §7, §8

[12] = system: cleaved PARP and cleaved caspase-3 in HCT116 cells; assay: Markers of apoptosis in HCT116 cells (Western blot); format: cell-based, human; details: increasing concentrations, 72 h
Description: Detection of cleaved poly(ADPribose) polymerase (PARP) by antibodies is considered a prominent marker of apoptosis. […] Overexpression of the 24 kDa N-terminal fragment inhibits DNA repair and ADPribose formation and stimulates apoptosis,[45] with consequent increase of PARP full-length/cleaved ratio and a darker cleaved band. During apoptosis, caspase-3 is a major cause of proteolysis. Detection of cleaved caspase-3 is also a reliable marker of apoptosis since it allows the quantification of cells that are dying or have died by apoptosis.[46]
as §1

OVCAR-8 cells = assay: Inhibition of growth of OVCAR-8 cells; format: cell-based, human; details: ovarian tumor cell line 8, 96 h
Method: as §2

## 4-(3-Phenyl-4-(3,4,5-trimethoxybenzoyl)-1H-pyrrol-1-yl)benzenesulfonamide [Compound 15]
[1]
  β-catenin and MYC levels: marked reduction
SW620 cells
  IC50: 23.8 ± 1.4 µM
MCF-7 cells
  IC50: 1.9 to 2.1 µM and 1.9 µM
[2]
  expression of Wnt target genes Fgf20 and Sall4: significantly reduced the expression
MDCK cells
  cell viability compared with DOX alone: did not further reduce cell viability
BT-549 cells
  Inhibition of BT-549 TNBC cell growth: significantly impaired cell growth
[3]
  increase in cell death compared to the control vehicle: 6–8%
MDCK/P-gp cells [4]
  intracellular accumulation of DOX: increasing DOX accumulation
hCA IX
  Ki: 0.0241 µM
[5]
  cell viability: > 75%
HT29 cells
  cell viability compared with DOX alone: did not further reduce cell viability
HCT116 cells
  IC50: 8.7 ± 1.4 µM
MDA-MB 231 cells
  Inhibition of MDA-MB 231 TNBC cell growth: potent antiproliferative effect
[6]; increasing concentrations, 24 h
  TOP reporter activity: significant and dose-dependent inhibition
[6]; negative control reporter
  FOP reporter activity: did not significantly prevent the activity
tubulin
  inhibition of tubulin assembly: partial inhibition
HT29/DX cells [7]
  cell viability compared with DOX alone: decreased cell viability in a dose-dependent manner
NCI/ADR-RES cells
  IC50: 1.9 µM and 1.9 to 2.1 µM and 2.1 µM
MDCK/P-gp cells [8]
  cell viability compared with DOX alone: decreased cell viability in a dose-dependent manner
HT29/DX cells [9]
  intracellular accumulation of DOX: strong dose-dependent increase
P-gp [10]; 15 at 1 nM
  Pgp activity (rate of ATP hydrolysis) HT29/DX: 0.7 nmol Pi × min-1 × mg protein-1 (2×) and 0.8 nmol Pi × min-1 × mg protein-1 (3×) and 0.9 nmol Pi × min-1 × mg protein-1 and 0.6 nmol Pi × min-1 × mg protein-1 (2×) and 1.0 nmol Pi × min-1 × mg protein-1
P-gp [10]; 15 at 10 nM
  Pgp activity (rate of ATP hydrolysis) HT29/DX: 0.4 nmol Pi × min-1 × mg protein-1 (3×) and 0.6 nmol Pi × min-1 × mg protein-1 (3×) and 0.5 nmol Pi × min-1 × mg protein-1 (2×) and 0.7 nmol Pi × min-1 × mg protein-1
P-gp [10]; 15 at 100 nM
  Pgp activity (rate of ATP hydrolysis) HT29/DX: 0.1 nmol Pi × min-1 × mg protein-1 and 0.2 nmol Pi × min-1 × mg protein-1 (3×) and 0.3 nmol Pi × min-1 × mg protein-1 (5×)
P-gp [10]; HT29/DX, starting at 10 nM
  effect on P-gp activity: reduced P-gp activity
P-gp [11]; 15 at 1 nM
  Pgp activity (rate of ATP hydrolysis) MDCK-Pgp: 5.2 nmol Pi × min-1 × mg protein-1 and 5.6 nmol Pi × min-1 × mg protein-1 (2×) and 5.4 nmol Pi × min-1 × mg protein-1 (2×) and 5.5 nmol Pi × min-1 × mg protein-1 and 5.9 nmol Pi × min-1 × mg protein-1 and 5.1 nmol Pi × min-1 × mg protein-1 and 5.3 nmol Pi × min-1 × mg protein-1
P-gp [11]; 15 at 10 nM
  Pgp activity (rate of ATP hydrolysis) MDCK-Pgp: 3.4 nmol Pi × min-1 × mg protein-1 (3×) and 3.2 nmol Pi × min-1 × mg protein-1 (3×) and 3.0 nmol Pi × min-1 × mg protein-1 and 3.9 nmol Pi × min-1 × mg protein-1 and 3.8 nmol Pi × min-1 × mg protein-1
P-gp [11]; 15 at 100 nM
  Pgp activity (rate of ATP hydrolysis) MDCK-Pgp: 2.1 nmol Pi × min-1 × mg protein-1 and 2.4 nmol Pi × min-1 × mg protein-1 (2×) and 2.3 nmol Pi × min-1 × mg protein-1 and 1.6 nmol Pi × min-1 × mg protein-1 and 1.8 nmol Pi × min-1 × mg protein-1 (2×) and 1.7 nmol Pi × min-1 × mg protein-1 and 1.5 nmol Pi × min-1 × mg protein-1
P-gp [11]; MDCK/P-gp, starting at 10 nM
  effect on P-gp activity: reduced P-gp activity
SW480 cells
  IC50: 17.7 ± 1.3 µM
[12]
  cleaved PARP and cleaved caspase-3 levels: increments of cleaved PARP and cleaved caspase-3
OVCAR-8 cells
  IC50: 1.9 to 2.1 µM and 1.9 µM
